Measurements from patent US20080188481A1 (priority 2002, published 2008).

System: HIV-1 single-round infectious reporter virus
Experiment: Single-round infectious HIV-1 luciferase reporter virus infection of HeLa CD4 cells (antiviral EC50)
Type: cell-based
Details: Human immunodeficiency virus 1, HeLa, 72 h, read-out: EC50 Group from Table 1
Protocol: • Virus production—Human embryonic Kidney cell line, 293T, was propagated in Dulbecco's Modified Eagle Medium (Invitrogen, Carlsbad, Calif.) containing 10% fetal Bovine serum (FBS, Sigma, St. Louis, Mo.). • Virus infection—Human epithelial cell line, HeLa, expressing the HIV-1 receptor CD4 was propagated in Dulbecco's Modified Eagle Medium (Invitrogen, Carlsbad, Calif.) containing 10% fetal Bovine serum (FBS, Sigma, St. Louis, Mo.) and supplemented with 0.2 mg/mL Geneticin (Invitrogen, Carlsbad, Calif.). Virus-Single-round infectious reporter virus was produced by co-transfecting human embryonic Kidney 293 cells with an HIV-1 envelope DNA expression vector and a proviral cDNA containing an envelope deletion mutation and the luciferase reporter gene inserted in place of HIV-1 nef sequences (Chen et al, Ref. 41). Transfections were performed using lipofectAMINE PLUS reagent as described by the manufacturer (Invitrogen, Carlsbad, Calif.).
• 1. HeLa CD4 cells were plated in 96 well plates at a cell density of 1×10^4 cells per well in 100 μl Dulbecco's Modified Eagle Medium containing 10% fetal Bovine serum and incubated overnight. • 2. Compound was added in a 2 μl dimethylsulfoxide solution, so that the final assay concentration would be ≦10 μM. • 3. 100 μl of single-round infectious reporter virus in Dulbecco's Modified Eagle Medium was then added to the plated cells and compound at an approximate multiplicity of infection (MOI) of 0.01, resulting in a final volume of 200 μl per well. • 4. Virally-infected cells were incubated at 37 degrees Celsius, in a CO2 incubator, and harvested 72 h after infection. • 5. Viral infection was monitored by measuring luciferase expression from viral DNA in the infected cells using a luciferase reporter gene assay kit, as described by the manufacturer (Roche Molecular Biochemicals, Indianapolis, Ind.). Infected cell supernatants were removed and 50 μl of lysis buffer was added per well. After 15 minutes, 50 μl of freshly-reconstituted luciferase assay reagent was added per well. Luciferase activity was then quantified by measuring luminescence using a Wallac microbeta scintillation counter. • 6. The percent inhibition for each compound was calculated by quantifying the level of luciferase expression in cells infected in the presence of each compound as a percentage of that observed for cells infected in the absence of compound and subtracting such a determined value from 100. • 7. An EC50 provides a method for comparing the antiviral potency of the compounds of this invention. The effective concentration for fifty percent inhibition (EC50) was calculated with the Microsoft Excel Xlfit curve fitting software. For each compound, curves were generated from percent inhibition calculated at 10 different concentrations by using a four paramenter logistic model (model 205). Table 1 is the key for the data in Table 2.

Compared with `O=C(C(=O)N1CCC(=C(c2ccccc2)c2ccccc2)CC1)c1c[nH]c2ccccc12` [Example 4], `COc1ncc(OC)c2c(C(=O)C(=O)N3CCC(=C(c4ccccc4)c4ccccc4)CC3)c[nH]c12` [Example 57] is lower in EC50: 1000 to 5000 nM for the first, < 1000 nM for the second.

`COc1ncc(OC)c2c(C(=O)C(=O)N3CCC(=C(Cl)c4ccccc4)CC3)c[nH]c12` [Example 5] and `COc1ncc(OC)c2c(C(=O)C(=O)N3CCC(=C(C)c4ccccc4)CC3)c[nH]c12` [Example 8] cannot be ordered by EC50: < 1000 nM for the first, < 1000 nM for the second.

Going from `O=C(C(=O)N1CCC(=Cc2ccccc2)CC1)c1c[nH]c2c(-c3ncon3)ccc(F)c12` [Example 6] to `COc1ncc(OC)c2c(C(=O)C(=O)N3CCC(=Cc4ccccc4)CC3)c[nH]c12` [Example 13], the EC50 rises from < 1000 nM to > 5000 nM. The first is the more potent here.

`COc1ncc(OC)c2c(C(=O)C(=O)N3CCC(=C(F)c4ccccc4)CC3)c[nH]c12` [Example 9] and `COc1ncc(OC)c2c(C(=O)C(=O)N3CCC(=C(Br)c4ccccc4)CC3)c[nH]c12` [Example 48a, 1-[4-(1-Bromo-1-phenyl-methylene)-piperidin-1-yl]-2-(4,7-dimethoxy-6-azaindol-3-yl)-ethane-1,2-dione] cannot be ordered by EC50: < 1000 nM for the first, < 1000 nM for the second.

`COc1ccnc2[nH]cc(C(=O)C(=O)N3CCC(=C(F)c4ccccc4)CC3)c12` [Example 10] and `COc1cnc(Cl)c2[nH]cc(C(=O)C(=O)N3CCC(=C(F)c4ccccc4)CC3)c12` [Example 21] cannot be ordered by EC50: < 1000 nM for the first, < 1000 nM for the second.

First: COc1ncc(OC)c2c(C(=O)C(=O)N3CCC(=C(c4ccccc4)S(C)(=O)=O)CC3)c[nH]c12 [Example 12]
Second: COc1ncc(OC)c2c(C(=O)C(=O)N3CCC(=C(C(N)=O)c4ccccc4)CC3)c[nH]c12 [Example 47]
The EC50 of the first is higher: 1000 to 5000 nM for the first, < 1000 nM for the second. The second is the more potent here.

First: CC1CN(C(=O)C(=O)c2c[nH]c3ccccc23)CC/C1=C\c1ccccc1 (stereo not drawn) [Example 14]
Second: COc1ccccc1C(=C1CCN(C(=O)C(=O)c2c[nH]c3c(OC)ncc(OC)c23)CC1)c1ccccc1 [Example 65]
The EC50 of the first is higher: 1000 to 5000 nM for the first, < 1000 nM for the second. The second is the more potent here.

`COc1ncc(OC)c2c(C(=O)C(=O)N3CCC(=C(C#N)c4nc5ccccc5[nH]4)CC3)c[nH]c12` [Example 23] and `COc1ncc(OC)c2c(C(=O)C(=O)N3CCC(=C(c4ccccc4)c4ccc(C#N)cc4)CC3)c[nH]c12` [Example 59] cannot be ordered by EC50: < 1000 nM for the first, < 1000 nM for the second.

Compared with `COc1cnc(Cl)c2[nH]cc(C(=O)C(=O)N3CCC(=C(C(N)=O)c4ccccc4)CC3)c12` [Example 48], `COc1cnc(-c2cnccn2)c2[nH]cc(C(=O)C(=O)N3CCC(=C(C(N)=O)c4ccccc4)CC3)c12` [Example 49] is lower in EC50: 1000 to 5000 nM for the first, < 1000 nM for the second.

`COc1ncc(OC)c2c(C(=O)C(=O)N3CCC(=C(c4ccccc4)c4nccs4)CC3)c[nH]c12` [Example 49a, 1-[4-(1-Phenyl-1-(thiazol-2-yl)-methylene)-piperidin-1-yl]-2-(4,7-dimethoxy-6-azaindol-3-yl)-ethane-1,2-dione] and `COc1ncc(OC)c2c(C(=O)C(=O)N3CCC(=C(c4ccccc4)c4ncco4)CC3)c[nH]c12` [Example 61] cannot be ordered by EC50: < 1000 nM for the first, < 1000 nM for the second.

`COc1ncc(OC)c2c(C(=O)C(=O)N3CCC(=C(c4ccccc4)c4ccccn4)CC3)c[nH]c12` [Example 50, 1-[4-(1-Phenyl-1-(pyridin-2-yl)-methylene)-piperidin-1-yl]-2-(4,7-dimethoxy-6-azaindol-3-yl)-ethane-1,2-dione] and `COc1ncc(OC)c2c(C(=O)C(=O)N3CCC(=C(c4ccccc4)c4cnccn4)CC3)c[nH]c12` [Example 56] cannot be ordered by EC50: < 1000 nM for the first, < 1000 nM for the second.

`COc1ncc(OC)c2c(C(=O)C(=O)N3CCC(=C(c4ccccc4)c4nnco4)CC3)c[nH]c12` [Example 51, 1-[4-(1-Phenyl-1-(1,3,4-oxadiazol-2-yl)-methylene)-piperidin-1-yl]-2-(4,7-dimethoxy-6-azaindol-3-yl)-ethane-1,2-dione] and `COc1ncc(OC)c2c(C(=O)C(=O)N3CCC(=C(c4ccccc4)c4nnc(C)o4)CC3)c[nH]c12` [Example 52, 1-[4-(1-Phenyl-1-(5-methyl-1,3,4-oxadiazol-2-yl)-methylene)-piperidin-1-yl]-2-(4,7-dimethoxy-6-azaindol-3-yl)-ethane-1,2-dione] cannot be ordered by EC50: < 1000 nM for the first, < 1000 nM for the second.

`COc1ncc(OC)c2c(C(=O)C(=O)N3CCC(=C(c4ccccc4)c4nnc(C(F)(F)F)o4)CC3)c[nH]c12` [Example 53, 1-[4-(1-Phenyl-1-(5-trifluoromethyl-1,3,4-oxadiazol-2-yl)-methylene)-piperidin-1-yl]-2-(4,7-dimethoxy-6-azaindol-3-yl)-ethane-1,2-dione] and `COc1ncc(OC)c2c(C(=O)C(=O)N3CCC(=C(c4ccccc4)c4c(C)noc4C)CC3)c[nH]c12` [Example 60] cannot be ordered by EC50: < 1000 nM for the first, < 1000 nM for the second.

`COc1ncc(OC)c2c(C(=O)C(=O)N3CCC(=C(c4ccccc4)c4ccco4)CC3)c[nH]c12` [Example 54] and `COc1ncc(OC)c2c(C(=O)C(=O)N3CCC(=C(c4ccccc4)c4cccc(F)c4)CC3)c[nH]c12` [Example 67] cannot be ordered by EC50: < 1000 nM for the first, < 1000 nM for the second.

`COc1ncc(OC)c2c(C(=O)C(=O)N3CCC(=C(c4ccccc4)c4cc(C)cs4)CC3)c[nH]c12` [Example 55] and `COc1cccc(C(=C2CCN(C(=O)C(=O)c3c[nH]c4c(OC)ncc(OC)c34)CC2)c2ccccc2)c1` [Example 58] cannot be ordered by EC50: < 1000 nM for the first, < 1000 nM for the second.

`COc1ccc(C(=C2CCN(C(=O)C(=O)c3c[nH]c4c(OC)ncc(OC)c34)CC2)c2ccccc2)cc1` [Example 62] and `COc1ncc(OC)c2c(C(=O)C(=O)N3CCC(=C(c4ccccc4)c4ccc(F)cc4)CC3)c[nH]c12` [Example 64] cannot be ordered by EC50: < 1000 nM for the first, < 1000 nM for the second.

`COc1ncc(OC)c2c(C(=O)C(=O)N3CCC(=C(c4ccccc4)c4ccc(SC)cc4)CC3)c[nH]c12` [Example 63] and `COc1ncc(OC)c2c(C(=O)C(=O)N3CCC(=C(c4ccccc4)c4cccc(SC)c4)CC3)c[nH]c12` [Example 68] cannot be ordered by EC50: < 1000 nM for the first, < 1000 nM for the second.

`COc1ncc(OC)c2c(C(=O)C(=O)N3CCC(=C(c4ccccc4)c4cccc([N+](=O)[O-])c4)CC3)c[nH]c12` [Example 66] and `COc1cnc(-c2cnccn2)c2[nH]cc(C(=O)C(=O)N3CCC(=C(c4ccccc4)c4cccnc4)CC3)c12` [Example 71, 1-[4-(1-Phenyl-1-(pyridin-3-yl)-methylene)-piperidin-1-yl]-2-(4-methoxy-7-pyrazinyl-6-azaindol-3-yl)-ethane-1,2-dione] cannot be ordered by EC50: < 1000 nM for the first, < 1000 nM for the second.

`COc1cnc(-c2cnccn2)c2[nH]cc(C(=O)C(=O)N3CCC(=C(c4ccccc4)c4cnccn4)CC3)c12` [Example 70, 1-[4-(1-Phenyl-1-(pyrazinyl)-methylene)-piperidin-1-yl]-2-(4-methoxy-7-pyrazinyl-6-azaindol-3-yl)-ethane-1,2-dione] and `COc1cnc(-c2cnccn2)c2[nH]cc(C(=O)C(=O)N3CCC(=C(c4ccccc4)c4nnc(C)o4)CC3)c12` [Example 72, 1-[4-(1-Phenyl-1-(5-methyl-1,3,4-oxadiazol-2-yl)-methylene)-piperidin-1-yl]-2-(4-methoxy-7-pyrazinyl-6-azaindol-3-yl)-ethane-1,2-dione] cannot be ordered by EC50: < 1000 nM for the first, < 1000 nM for the second.

`COc1cnc(-n2ccnn2)c2[nH]cc(C(=O)C(=O)N3CCC(=C(c4ccccc4)c4nnc(C)o4)CC3)c12` [Example 73, 1-[4-(1-Phenyl-1-(5-methyl-1,3,4-oxadiazol-2-yl)-methylene)-piperidin-1-yl]-2-[4-methoxy-7-(1,2,3-triazol-1-yl)-6-azaindol-3-yl]-ethane-1,2-dione] and `CCc1nnc(C(=C2CCN(C(=O)C(=O)c3c[nH]c4c(-n5ccnn5)ncc(OC)c34)CC2)c2ccccc2)o1` [Example 74, 1-[4-(1-Phenyl-1-(5-ethyl-1,3,4-oxadiazol-2-yl)-methylene)-piperidin-1-yl]-2-[4-methoxy-7-(1,2,3-triazol-1-yl)-6-azaindol-3-yl]-ethane-1,2-dione] cannot be ordered by EC50: < 1000 nM for the first, < 1000 nM for the second.

`COc1cnc(-n2ccnn2)c2[nH]cc(C(=O)C(=O)N3CCC(=C(c4ccccc4)c4nnc(C(C)C)o4)CC3)c12` [Example 75, 1-[4-(1-Phenyl-1-(5-isopropyl-1,3,4-oxadiazol-2-yl)-methylene)-piperidin-1-yl]-2-[4-methoxy-7-(1,2,3-triazol-1-yl)-6-azaindol-3-yl]-ethane-1,2-dione] and `COc1cnc(-n2ccnn2)c2[nH]cc(C(=O)C(=O)N3CCC(=C(c4ccccc4)c4nnc(C5CC5)o4)CC3)c12` [Example 76, 1-[4-(1-Phenyl-1-(5-cyclopropyl-1,3,4-oxadiazol-2-yl)-methylene)-piperidin-1-yl]-2-[4-methoxy-7-(1,2,3-triazol-1-yl)-6-azaindol-3-yl]-ethane-1,2-dione] cannot be ordered by EC50: < 1000 nM for the first, < 1000 nM for the second.
